Measured values from patent US10669268B2, “Bicyclic derivatives” (Hoffmann-La Roche Inc., priority 2012, dated 2020).

Molecular target: ATX (human His-tagged) (Homo sapiens (Human), UniProt Q13822)
Assay: Human ATX enzyme inhibition assay (fluorescence quenching, MR121 substrate)
Format: biochemical
Conditions: 30 nM ATX, 1 μM MR121 substrate, 30° C., pH 8.0
Protocol: Human ATX Enzyme Inhibition Assay
Assay working solutions were made as follows:
Assay buffer (50 mM Tris-HCl, 140 mM NaCl, 5 mM KCl, 1 mM CaCl2, 1 mM MgCl2, 0.01% Triton-X-100, pH 8.0;
MR121 substrate solution: MR121 substrate stock solution (800 μM MR121 substrate in DMSO), diluted to 2-5× final concentration in assay buffer.
10 μL of MR121 substrate solution was added (1 μM final concentration), mixed 30 times and then incubated for 15 minutes at 30° C.

Row | Compound | IC50
1 | O=C(OCc1cc(Cl)cc(Cl)c1)N1C[C@H]2CN(Cc3ccc4[nH]c(=O)oc4c3)C[C@H]2C1 [Example 6.03] | 531 nM
2 | O=C(OCc1ccc(OCC(F)(F)F)cc1F)N1CC[C@@H]2CN(C(=O)c3ccc4[nH]nnc4c3)C[C@@H]2CC1 [Example 1.47, (3aS,8aR)-2-(1H-benzotriazole-5-carbonyl)-octahydro-pyrrolo[3,4-d]azepine-6-carboxylic acid 2-fluoro-4-(2,2,2-trifluoro-ethoxy)-benzyl ester] | 2 nM
3 | COc1cc(OC(F)(F)F)ccc1COC(=O)N1CC[C@@H]2CN(C(=O)c3ccc4[nH]nnc4c3)C[C@H]2C1 (relative stereo) [Example 1.33, trans-2-(1H-benzotriazole-5-carbonyl)-octahydro-pyrrolo[3,4-c]pyridine-5-carboxylic acid 2-methoxy-4-trifluoromethoxy-benzyl ester] | 21 nM
4 | O=C(c1cnc(OC2CCC2)c(C(F)(F)F)c1)N1C[C@@H]2CN(C(=O)c3ccc4[nH]nnc4c3)C[C@H]2C1 [Example 19.39, ((3aS,6aS)-5-(1H-benzo[d][1,2,3]triazole-5-carbonyl)hexahydropyrrolo[3,4-c]pyrrol-2(1H)-yl)(6-cyclobutoxy-5-(trifluoromethyl)pyridin-3-yl)methanone] | 7 nM
5 | O=C(OCc1cc(Cl)cc(Cl)c1)N1CC[C@@H]2CN(C(=O)c3ccc4[nH]nnc4c3)C[C@@H]2CC1 [Example 1.11, (3aR,8aS)-3,5-dichlorobenzyl 2-(1H-benzo[d][1,2,3]triazole-5-carbonyl)octahydropyrrolo[3,4-d]azepine-6(7H)-carboxylate] | 4 nM
6 | O=C(OCc1ccc(OC(F)(F)F)cc1)N1C[C@@H]2CN(C(=O)N3CCc4[nH]nnc4C3)C[C@H]2C1 [Example 4.54, (3aS,6aS)-5-(1,4,6,7-tetrahydro-[1,2,3]triazolo[4,5-c]pyridine-5-carbonyl)-hexahydro-pyrrolo[3,4-c]pyrrole-2-carboxylic acid 4-trifluoromethoxy-benzyl ester] | 14 nM
7 | CC(C)Oc1cc(C#N)ccc1COC(=O)N1C[C@@H]2CN(C(=O)c3ccc4[nH]nnc4c3)C[C@H]2C1 [Example 4.65, (3aS,6aS)-5-(1H-benzotriazole-5-carbonyl)-hexahydro-pyrrolo[3,4-c]pyrrole-2-carboxylic acid 4-cyano-2-isopropoxy-benzyl ester] | 14 nM
8 | O=C(OCc1cc(Cl)cc(Cl)c1)N1C[C@@H]2CN(S(=O)(=O)c3ccc4[nH]c(=O)oc4c3)C[C@@H]2C1 [Example 7, (3aR,6aS)-3,5-Dichlorobenzyl 5-(2-oxo-2,3-dihydrobenzo[d]oxazol-6-ylsulfonyl)hexahydropyrrolo[3,4-c]pyrrole-2(1H)-carboxylate] | 22 nM
9 | Cc1cc(COC(=O)N2C[C@@H]3CN(C(=O)c4ccc5[nH]nnc5c4)C[C@H]3C2)c(C(C)C)cc1C#N [Example 4.53, (3aS,6aS)-5-(1H-benzotriazole-5-carbonyl)-hexahydro-pyrrolo[3,4-c]pyrrole-2-carboxylic acid 4-cyano-2-isopropyl-5-methyl-benzyl ester] | 5 nM
10 | CS(=O)(=O)c1cc(Cl)cc(COC(=O)N2C[C@@H]3CN(C(=O)c4ccc5[nH]nnc5c4)CC[C@H]3C2)c1 [Example 4.09, (3aS,7aR)-5-(1H-benzotriazole-5-carbonyl)-octahydro-pyrrolo[3,4-c]pyridine-2-carboxylic acid 3-chloro-5-methanesulfonyl-benzyl ester] | 49 nM
11 | O=C(OCc1ccc(OC(F)(F)F)cc1)N1C[C@@H]2CN(C(=O)c3cnc4[nH]nnc4c3)C[C@H]2C1 [Example 1.49, (3aS,6aS)-5-(3H-[1,2,3]triazolo[4,5-b]pyridine-6-carbonyl)-hexahydro-pyrrolo[3,4-c]pyrrole-2-carboxylic acid 4-trifluoromethoxy-benzyl ester] | 218 nM
12 | O=C(OCc1ccc(OC(F)(F)F)cc1)N1C[C@@H]2CN(C(=O)[C@@H]3CCc4[nH]nnc4C3)C[C@H]2C1 [Example 4.58, (3aS,6aS)-5-((R)-4,5,6,7-tetrahydro-1H-benzotriazole-5-carbonyl)-hexahydro-pyrrolo[3,4-c]pyrrole-2-carboxylic acid 4-trifluoromethoxy-benzyl ester] | 5.2 nM
13 | CCOc1cc(C(=O)N2C[C@@H]3CN(C(=O)c4ccc5[nH]nnc5c4F)C[C@H]3C2)nc2ccccc12 [Example 1.61, (4-ethoxyquinolin-2-yl)((3aS,6aS)-5-(4-fluoro-1H-benzo[d][1,2,3]triazole-5-carbonyl)hexahydropyrrolo[3,4-c]pyrrol-2(1H)-yl)methanone] | 21 nM
14 | O=C(OCc1cc(Cl)cc(Cl)c1)N1C[C@H]2CN(Cc3ccc4[nH]ncc4c3)C[C@H]2C1 [Example 6.02] | 2810 nM
15 | O=C(c1ccc2[nH]nnc2c1)N1C[C@H]2CN(C(=O)N3CCC(c4ccc(Cl)cc4)CC3)C[C@@H]2C1 [Example 20, (1H-Benzotriazol-5-yl)-{(3aS,6aS)-5-[4-(4-chloro-phenyl)-piperidine-1-carbonyl]-hexahydro-pyrrolo[3,4-c]pyrrol-2-yl}-methanone] | 29 nM
16 | CS(=O)(=O)c1cc(Cl)cc(COC(=O)N2C[C@@H]3CN(C(=O)c4ccc5[nH]nnc5c4)C[C@@H]3C2)c1 [Example 4.04, (3aS,6aR)-5-(1H-benzotriazole-5-carbonyl)-hexahydro-pyrrolo[3,4-c]pyrrole-2-carboxylic acid 3-chloro-5-methanesulfonyl-benzyl ester] | 46 nM

Other lines, results leading:

Row | IC50 | Compound
17 | 10 nM | Cc1cc(OC(F)(F)F)ccc1CCC(=O)N1CC[C@@H]2CN(C(=O)c3ccc4[nH]nnc4c3)C[C@@H]2CC1 [Example 17.06, 1-((3aR,8aS)-2-(1H-benzo[d][1,2,3]triazole-5-carbonyl)octahydropyrrolo[3,4-d]azepin-6(7H)-yl)-3-(2-methyl-4-(trifluoromethoxy)phenyl)-propan-1-one]
18 | 8 nM | O=C(CCc1ccc(OC(F)(F)F)cc1F)N1C[C@@H]2CN(C(=O)c3ccc4[nH]nnc4c3)C[C@H]2C1 [Example 17.04, 1-[(3aR,6aR)-5-(1H-benzotriazole-5-carbonyl)-hexahydro-pyrrolo[3,4-c]pyrrol-2-yl]-3-(2-fluoro-4-trifluoromethoxy-phenyl)-propan-1-one]
19 | 192 nM | O=C(/C=C/c1ccc(OC(F)(F)F)cc1)N1CC[C@@H]2CN(C(=O)N3CCc4[nH]c(=O)ccc4C3)C[C@@H]2CC1 [Example 8.04]
20 | 5 nM | O=C(/C=C/c1ccc(OC(F)F)cc1)N1CC[C@@H]2CN(C(=O)c3ccc4[nH]nnc4c3)C[C@@H]2CC1 [Example 15.21]
21 | 13 nM | N#Cc1ccc(/C=C/C(=O)N2CC[C@@H]3CN(C(=O)c4ccc5[nH]nnc5c4)C[C@@H]3CC2)cc1 [Example 15.11]
22 | 10 nM | O=C(CCc1ccc(OC(F)(F)F)cc1)N1C[C@H]2CN(C(=O)c3ccc4[nH]nnc4c3)C[C@@H]2C1 [Example 19.12, 1-[(3aS,6aS)-5-(1H-benzotriazole-5-carbonyl)-hexahydro-pyrrolo[3,4-c]pyrrol-2-yl]-3-(4-trifluoromethoxy-phenyl)-propan-1-one]
23 | 7 nM | O=C(/C=C/c1ccc(OC(F)(F)F)cc1)N1CC[C@@H]2CN(C(=O)c3ccc4[nH]nnc4c3)C[C@@H]2CC1 [Example 15.70]
24 | 1840 nM | O=C(/C=C/c1ccc(OC(F)(F)F)cc1)N1CC[C@@H]2CN(C(=O)N3CCn4nc(C(F)(F)F)nc4C3)C[C@@H]2CC1 [Example 8.07]
25 | 15 nM | CC(C)Oc1cc(C(=O)N2C[C@@H]3CN(C(=O)[C@@H]4CCc5[nH]nnc5C4)C[C@H]3C2)nc2ccccc12 [Example 19.25, [(3aS,6aS)-5-[(5R)-4,5,6,7-tetrahydro-1H-benzotriazole-5-carbonyl]-1,3,3a,4,6,6a-hexahydropyrrolo[3,4-c]pyrrol-2-yl]-(4-propan-2-yloxyquinolin-2-yl)methanone]
26 | 85 nM | CN(Cc1cnn[nH]1)C(=O)N1C[C@H]2CCN(C(=O)CCc3ccc(OC(F)(F)F)cc3)CC[C@H]2C1 [Example 17.01, (3aR,8aS)-N-((1H-1,2,3-triazol-5-yl)methyl)-N-methyl-6-(3-(4-(trifluoromethoxy)phenyl)-propanoyl)octahydropyrrolo[3,4-d]azepine-2(1H)-carboxamide]
27 | 6 nM | O=C(/C=C/c1cc(Cl)cc(Cl)c1)N1C[C@@H]2CN(C(=O)c3ccc4[nH]nnc4c3)C[C@H]2C1 [Example 15.42]
28 | 49 nM | O=C(/C=C/c1cccc(OC(F)(F)F)c1)N1C[C@H]2CCN(C(=O)c3ccc4[nH]nnc4c3)CC[C@H]2C1 [Example 15.20]
29 | 362 nM | O=C(CCc1cc(F)cc(C(F)(F)F)c1)N1C[C@@H]2CN(C(=O)c3ccc4[nH]nnc4c3)C[C@@H]2C1 [Example 15.03]
30 | 12 nM | O=C(COc1ccc(OC(F)(F)F)cc1)N1C[C@@H]2CN(C(=O)c3ccc4[nH]nnc4c3)C[C@H]2C1 [Example 15.63]
31 | 192 nM | O=C(/C=C/c1ccc(OC(F)(F)F)cc1)N1CC[C@@H]2CN(C(=O)N3CCc4ncccc4C3)C[C@@H]2CC1 [Example 8.06]
32 | 32 nM | O=C(CCc1ccc(-c2cccnc2)cc1)N1C[C@@H]2CN(C(=O)c3ccc4[nH]nnc4c3)C[C@H]2C1 [Example 17.12, 1-[(3aR,6aR)-5-(1H-benzotriazole-5-carbonyl)-hexahydro-pyrrolo[3,4-c]pyrrol-2-yl]-3-(4-pyridin-3-yl-phenyl)-propan-1-one]
33 | 2020 nM | O=C(c1ccc2[nH]nnc2c1)N1C[C@@H]2CN(C(=O)c3cc4ccc(Cl)cc4[nH]3)C[C@@H]2C1 [Example 15.04]
